# Where “and” joins values, the source holds several entries; their conditions need not be identical. Equal entries are not always repeated. Where two headings read alike, the source gives them in different places.
# What was measured:
# [1] = system: Rat2 fibroblasts stably transformed with v-Src/Hu c-Src fusion gene; assay: Anchorage independent Src-transformed fibroblast proliferation assay; format: cell-based, rat
# Experimental: Anchorage Independent Src-Transformed Fibroblast Proliferation Assay Rat2 fibroblasts stably transformed with a plasmid containing a CMV promotor controlled v-Src/Hu c-Src fusion gene in which the catalytic domain of human c-Src was inserted in place of the v-Src catalytic domain in the v-Src gene are used for the measurement of src dependent suspension growth. […] Multiple entries for a given compound indicate that it was tested multiple times.
# [2] = molecular target: T1, Rat2 fibroblasts stably transformed with v-Src/Hu Lck fusion gene (Homo sapiens, UniProt P06239, cells depend on it, form not given); assay: Anchorage independent Lck-transformed fibroblast proliferation assay; format: cell-based, rat; conditions: Table 3; read-out: Lck Cells IC50
# T1 construct: Candidates are e.g. Schmidt-Ruppin A (P00524) or Prague C (P00526); The human Lck catalytic domain stands in place of the v-Src catalytic domain
# T1 sequence (P06239 whole entry, change not shown, the tested form may be a part): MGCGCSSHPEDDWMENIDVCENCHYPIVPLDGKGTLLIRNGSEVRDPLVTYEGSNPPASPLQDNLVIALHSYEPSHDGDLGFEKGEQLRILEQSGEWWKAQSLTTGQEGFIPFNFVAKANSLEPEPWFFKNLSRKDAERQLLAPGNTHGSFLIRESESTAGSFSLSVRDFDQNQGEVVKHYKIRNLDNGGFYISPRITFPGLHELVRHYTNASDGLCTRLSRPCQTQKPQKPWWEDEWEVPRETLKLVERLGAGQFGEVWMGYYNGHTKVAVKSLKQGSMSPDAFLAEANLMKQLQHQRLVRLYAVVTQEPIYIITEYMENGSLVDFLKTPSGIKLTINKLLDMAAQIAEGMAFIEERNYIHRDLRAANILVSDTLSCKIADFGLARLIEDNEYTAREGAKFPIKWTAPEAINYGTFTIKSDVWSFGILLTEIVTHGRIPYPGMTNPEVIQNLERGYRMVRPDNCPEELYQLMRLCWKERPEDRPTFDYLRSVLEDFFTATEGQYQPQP
# How it was run: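 Rat2 fibroblasts expressing a CMV-driven v-Src/human Lck catalytic-domain fusion grown in suspension on ultra-low attachment plates, 10,000 cells/well. Compound added Day 2 as two-fold dilutions from 10 to 0.009 micromolar; MTS added Day 5, absorbance read at 490 nm. IC50 derived from blank-corrected % of no-compound control.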
# [3] = molecular target: T2, Recombinant human Src enzyme (Homo sapiens, UniProt P12931); assay: Src kinase assay (LANCE FRET); format: biochemical; conditions: Table 3; 100 μM ATP, biotinylated Cdk1 peptide substrate
# T2 construct: purchased PanVera P3044
# T2 sequence (P12931 whole entry): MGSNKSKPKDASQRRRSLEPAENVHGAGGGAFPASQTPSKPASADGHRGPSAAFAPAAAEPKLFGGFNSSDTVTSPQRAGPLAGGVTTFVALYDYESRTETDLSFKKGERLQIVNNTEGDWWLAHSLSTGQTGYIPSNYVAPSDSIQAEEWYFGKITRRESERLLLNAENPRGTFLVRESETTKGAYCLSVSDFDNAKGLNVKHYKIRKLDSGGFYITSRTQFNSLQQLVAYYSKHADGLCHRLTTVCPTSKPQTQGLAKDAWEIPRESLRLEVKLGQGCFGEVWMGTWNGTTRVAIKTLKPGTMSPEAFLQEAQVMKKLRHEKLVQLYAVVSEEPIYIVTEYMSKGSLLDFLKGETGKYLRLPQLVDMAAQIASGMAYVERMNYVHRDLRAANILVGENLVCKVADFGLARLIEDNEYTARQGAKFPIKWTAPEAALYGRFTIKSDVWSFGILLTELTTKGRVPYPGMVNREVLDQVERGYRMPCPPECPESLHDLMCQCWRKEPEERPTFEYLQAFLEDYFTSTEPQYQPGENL
# Experimental: Recombinant human Src enzyme was obtained from PanVera (P3044). […] Homogeneous fluorescence resonance energy transfer kinase assays were performed using the europium/APC detection format (LANCE, Perkin Elmer). Src enzyme (10 ng) was mixed with biotinylated peptide (final concentration 2 μM), 50 mM Hepes (pH 7.5), 10 mM MgCl2, 20 μg/ml BSA, 0.001% Brij-35 (sigma), 100 μM ATP, 1% DMSO. The kinase reaction was incubated for 70 min at 37° C. The reaction was stopped with EDTA at a final concentration of 30 mM EDTA/25 mM Hepes (pH 7.5)/10 μg/ml BSA. The mixture was combined with Eu-labeled anti-phosphotyrosine antibody PT66 (Perkin Elmer, AD0068) and Streptavidin Surelight-APC (Perkin Elmer, CR130-100) in 50 mM Hepes (pH 7.5)/20 μg/ml BSA, and incubated for 30 min according to manufacturer's specifications. […] Multiple entries for a given compound indicate that it was tested multiple times.
# BXPC3 cells = assay: Cell based screen for inhibitors of Raf and/or Mek kinase, BXPC3; conditions: Homo sapiens, BXPC-3, 96 h; Table 4; four days incubation, SRB
# Experimental: (§1) Cell Based Screen for Inhibitors of Raf and/or Mek Kinase.
# (§2) Cell Lines: Human tumor cell lines LoVo which are known to be growth inhibited by low nM concentrations of a reference standard inhibitor of Ras and human adenocarcinoma cell line CaCo-2, which is known to be growth resistant to the same reference compound.
# (§3) Cell Media: RPMI 1640 with 10% Fetal Bovine Serum supplemented with L-glutamine and Pennicilin/Streptomycin. • Compounds: Supplied usually as a 10 mM stock in 100% DMSO. • Normal Saline: 150 mM NaCl • Trichloroacetic Acid (TCA): 50% (w/v) in water • Sulforhodamine B (SRB): 0.4% (w/v) in 1% Acetic Acid • Tris Base: 10 mM in water Methods
# (§4) Cells are plated at 2000 cells per well for cell line LoVo, 1,750 cells for cell line BXPC3, 1,000 cells for cell line WM266–4 and 1500 cells for cell line CaCo-2 in 96 well plates. Cells are plated in media (200 μl) and allowed to adhere overnight at 37° C. At 24 hours post plating, compounds are added directly at a volume of 0.5 μl. For the qualitative screen (compounds screened at 25 μM) compound is added directly to cells. For the quantitative screen, compound is first diluted in DMSO to generate concentrations of compound or reference standard of: 1, 5, 10 and 25 μM. It is advisable to make the dilutions in an identical 96 well plate so that compounds can be added using a multichannel micropipettor set at 0.5 μl. The cells are then incubated for four days after which the media is removed using a 12 well manifold by first tipping the plate forward at a 45 degree angle and then inserting the manifold in an upright orientation to prevent the tips of the manifold from disturbing cells at the bottom of the plate. 200 μl of normal saline is then added to each well using an 8 well multichannel pipettor, followed by the careful addition of 50 μl of 50% TCA. The plates are then incubated for 2 hours at 4° C., after which the supernatant is removed using the same technique as above and the plated washed twice with 200 μl water. The plates are then air dried and 50 μl of SRB stock solution is carefully added so that the entire bottom of each well is covered. This again can be used using an 8 well multichannel pipettor. The SRB is incubated with fixed cells for 15 minutes at room temperature after which the SRB is removed with the manifold as described above and the plates washed twice with 350 μl of 1% acetic acid per well each time. The plates are then air dried after which the bound SRB is released from protein by the addition of 200 μl of Tris base. Resolubilizing the SRB is aided by placing the plates on a rotator for 15–30 minutes. The absorbance of each well is determined at 550 or 562 nm using a microtiter plate reader.
# (§5) Each compound or dilution thereof is performed in triplicate. Outliers are identified by visual inspection of the data. Each plate should have a “0” control (vehicle only).
# (§6) Quantitative Assay: A standard curve is constructed by plotting the concentration of compound against the average absorbance calculated at that concentration. A curve is plotted and the concentration at which the curve passes through the 50% the absorbance mark seen in the “0” control well is the IC50 calculated for that compound. Multiple entries for a given compound indicate that it was tested multiple times.
# LoVo cells = assay: Cell based screen for inhibitors of Raf and/or Mek kinase, LoVo; set-up: species or system human; conditions: Homo sapiens, LoVo, 96 h, Table 4; four days incubation, SRB
# Experimental: as §1, §2, §3, §4, §5, §6
# [4] = Rattus norvegicus, Rat2, read-out: Src Cells IC50 μM or % inhib at 10 μM (IC50 values), Table 3
# [5] = read-out: Src Cells IC50 μM or % inhib at 10 μM (IC50 values), Table 3
# [6] = Rattus norvegicus, Rat2, Table 3, read-out: Src Cells IC50 μM or % inhib at 10 μM (IC50 values)
# [7] = Table 3, read-out: Src Cells IC50 μM or % inhib at 10 μM (IC50 values)
Structure (SMILES),GI50 [2],melting point,IC50 [3],IC50 (BXPC3 cells) [nM],IC50 (LoVo cells) [nM],"IC50 [1, 4] [µM]","IC50 [1, 5] [µM]","IC50 [1, 6] [µM]","IC50 [1, 7] [µM]","inhibition at 10 µM ([1]; Rattus norvegicus, Rat2, Table 3, at 10 μM, read-out: Src Cells IC50 μM or % inhib at 10 μM (% values)) [%]","Src Cells IC50 μM or % inhib at 10 μM (% values) ([1]; Table 3, at 10 μM) [%]"
"CCN1CCN(Cc2ccc(-c3cc4ncc(C#N)c(Nc5cc(OC)c(Cl)cc5Cl)c4s3)cc2)CC1 [Example 70, 7-[(2,4-dichloro-5-methoxyphenyl)amino]-2-{4-[(4-ethylpiperazin-1-yl)methyl]phenyl}thieno[3,2-b]pyridine-6-carbonitrile]",120 nM and 110 nM,198 to 200 °C,7.3 nM and 9.2 nM,,,0.68,0.58,,,,
"COc1cc(Nc2c(C#N)cnc3cc(-c4csc(CN(C)C)c4)sc23)c(Cl)cc1Cl [Example 80, 7-[(2,4-dichloro-5-methoxyphenyl)amino]-2-{5-[(dimethylamino)methyl]thien-3-yl}thieno[3,2-b]pyridine-6-carbonitrile]",74 nM and 73 nM,184 to 186 °C,13 nM and 14 nM,,,0.79,0.58,,,,
"COc1cc(Nc2c(C#N)cnc3cc(-c4ccc(CN5CC[S+]([O-])CC5)cc4)sc23)c(Cl)cc1Cl [Example 105, 7-[(2,4-dichloro-5-methoxyphenyl)amino]-2-{4-[(1-oxidothiomorpholin-4-yl)methyl]phenyl}thieno[3,2-b]pyridine-6-carbonitrile]",222 nM and 235 nM,242 to 245 °C,8.5 nM and 7 nM,,,,,0.473,0.55,,
"COc1cc(Nc2c(C#N)cnc3cc(-c4ccc(C(=O)N5CCN(C)CC5)cc4)sc23)c(Cl)cc1Cl [Example 117, 7-[(2,4-dichloro-5-methoxyphenyl)amino]-2-{4-[(4-methylpiperazin-1-yl)carbonyl]phenyl}thieno[3,2-b]pyridine-6-carbonitrile]",129 nM and 171 nM,240 to 243 °C (dec.),15 nM and 11 nM,,,0.388,0.274,,,,
"COc1cc(Nc2c(C#N)cnc3c(-c4ccc(CN5CCN(C)CC5)cc4)csc23)c(Cl)cc1Cl [Example 142, 7-[(2,4-dichloro-5-methoxyphenyl)amino]-3-{4-[(4-methylpiperazin-1-yl)methyl]phenyl}thieno[3,2-b]pyridine-6-carbonitrile]",3540 nM and 4350 nM,197 to 198 °C,> 10000 nM,,,,,3.25,1.99,,
"COc1cc(Nc2c(C#N)cnc3c(-c4ccc(CN5CCOCC5)cc4)csc23)c(Cl)cc1Cl [Example 143, 7-[(2,4-dichloro-5-methoxyphenyl)amino]-3-[4-(morpholin-4-ylmethyl)phenyl]thieno[3,2-b]pyridine-6-carbonitrile]",> 10000 nM,184 to 185 °C,> 10000 nM,,,,,,,61,45

# The next lines start with results.
GI50 [2],melting point,IC50 [3],IC50 (BXPC3 cells) [nM],IC50 (LoVo cells) [nM],Structure (SMILES),"IC50 [1, 4] [µM]","IC50 [1, 5] [µM]","IC50 [1, 6] [µM]","IC50 [1, 7] [µM]","inhibition at 10 µM ([1]; Rattus norvegicus, Rat2, Table 3, at 10 μM, read-out: Src Cells IC50 μM or % inhib at 10 μM (% values)) [%]","Src Cells IC50 μM or % inhib at 10 μM (% values) ([1]; Table 3, at 10 μM) [%]"
63 nM and 65 nM,141 to 143 °C,9 nM and 11 nM,,,"COc1cc(Nc2c(C#N)cnc3cc(-c4ccc(CNCCCO)cc4)sc23)c(Cl)cc1Cl [Example 107, 7-[(2,4-dichloro-5-methoxyphenyl)amino]-2-(4-{[(3-hydroxypropyl)amino]methyl}phenyl)thieno[3,2-b]pyridine-6-carbonitrile]",,,0.531,0.543,,
145 nM and 103 nM,162 to 164 °C,8.8 nM and 11 nM,,,"COCCNCc1ccc(-c2cc3ncc(C#N)c(Nc4cc(OC)c(Cl)cc4Cl)c3s2)cc1 [Example 92, 7-[(2,4-dichloro-5-methoxyphenyl)amino]-2-(4-{[(2-methoxyethyl)amino]methyl}phenyl)thieno[3,2-b]pyridine-6-carbonitrile]",,,0.829,0.486,,
,190 to 194 °C,,71,73,"CCN(CC)CC#Cc1cc2ncc(C#N)c(Nc3ccc(Sc4nccn4C)c(Cl)c3)c2s1 [Example 118, 7-({3-chloro-4-[(1-methyl-1H-imidazol-2-yl)thio]phenyl}amino)-2-[3-(diethylamino)prop-1-ynyl]thieno[3,2-b]pyridine-6-carbonitrile]",,,,,,
341 nM and 276 nM,154 to 156 °C,15 nM and 16 nM,,,"COc1cc(Nc2c(C#N)cnc3cc(-c4ccc(CNCCSC)cc4)sc23)c(Cl)cc1Cl [Example 93, 7-[(2,4-dichloro-5-methoxyphenyl)amino]-2-[4-({[2-(methylthio)ethyl]amino}methyl)phenyl]thieno[3,2-b]pyridine-6-carbonitrile]",,,1.22,0.638,,

# Reference: US7276519B2, “Thieno[3,2-b]pyridine-6-carbonitriles and thieno[2,3-b]pyridine-5-carbonitriles as protein kinase inhibitors” (Wyeth, priority 2002, dated 2007)
